Source: patent US8222380B2, “Amorphous telithromycin compound” (Sandoz AG, priority 2006, dated 2012)

Assays:
[1] = Stress storage in closed vial, impurity increase by HPLC; type: physicochemical; conditions: closed vial at 80° C. for 24 hours; spray-dried sample of Example 1
Method: The sample was stressed in a closed vial at 80° C. for 24 hours. An increase in impurities of 0.2 area % was observed when measured by HPLC under the following conditions: column: symmetry C18 3.5 μm; eluent: buffer pH 4.4 (4.76 g KH2PO4 in 2000 ml H2O adjusted to pH 4.4 using H3PO4), acetonitrile (2000 ml buffer+666 ml acetonitrile); measurement at a wavelength of 205 nm; inj. Vol […]; temperature 40° C.

[2] = Stability of the amorphous state on storage judged by XRPD; type: physicochemical; conditions: after 8 weeks of storage
Method: The invention therefore relates to a stable amorphous form of telithromycin (3-De[(2,6-dideoxy-3-C-methyl-3-O-methyl-α-L-ribohexopyranosyl)oxy]-11,12-dideoxy-6-O-methyl-3-oxo-12,11-[oxycarbonyl[[4-[4-(3-pyridinyl)-1H-imidazol-1-yl]butyl]imino]]erythromycin). […] The stable amorphous form of telithromycin as obtained according to example 2 was analyzed by X-ray powder diffraction diagrams, measured using an AXS-Bruker D-8 diffractometer (Cu-radiation, Bragg Brentano Optics, 40 kV, 40 mA, steps 0.01°, time 2 seconds, cut-off 40°, standard sample carrier).

Structure (SMILES): CCC1OC(=O)[C@H](C)C(=O)[C@H](C)[C@@H](OC2OC(C)CC(N(C)C)C2O)[C@](C)(OC)C[C@@H](C)C(=O)[C@H](C)[C@H]2N(CCCCn3cnc(-c4cccnc4)c3)C(=O)O[C@]12C (stereo partly drawn) [amorphous telithromycin, 3-De[(2,6-dideoxy-3-C-methyl-3-O-methyl-α-L-ribohexopyranosyl)oxy]-11,12-dideoxy-6-O-methyl-3-oxo-12,11-[oxycarbonyl[[4-[4-(3-pyridinyl)-1H-imidazol-1-yl]butyl]imino]]erythromycin]
- increase in impurities measured by HPLC [1]: 0.2 area %
- presence of crystalline telithromycin as judged by X-ray powder diffractogram [2]: no signs of the presence of crystalline telithromycin
